These results are taken from patent publication US10942107B2, “Methods of screening for mild skin cleanser” (The Procter & Gamble Company, priority 2017, dated 2021).

For series [1] the following is noted: known in the art; cited from earlier work.
The test system of series [2] is skin. The experiment in a line: Surfactant skin penetration at 5 depths after forearm controlled application technique (FCAT), liquid chromatography and mass spectrometry. The class given is in vivo. The source says:
One way to test the potential mildness of a surfactant is by looking at how it interacts with the skin. One type of interaction with the skin is skin penetration. Skin penetration looks at how much of the surfactant will penetrate into the skin. It is believed that the more the surfactant penetrates into the skin, the less mild the composition. Originally, this was believed to be largely driven by the structure of the surfactant, itself. Now, it is believed that the phase behavior associated with the surfactant can also have an impact on the penetration of the surfactant, and thus, its mildness. One surfactant reviewed for mildness is sodium trideceth-2 sulfate. […] In FIG. 1, the lighter gray (left hand column) is sodium trideceth-2 sulfate deposited on skin in a vesicle form, specifically a lamellar form as part of Composition F (below), while the darker gray (right hand column) is sodium trideceth-2 sulfate deposited in a micellar form as part of Composition E (below). The compositions were applied in accordance with a forearm controlled application technique (FCAT), a description of which is found in Ertel et al., “A forearm controlled application technique for estimating the relative mildness of personal cleansing products,” J. Soc. Cosmet. […] The levels of the target materials on the skin are then measured with a combination of liquid chromatography and mass spectrometry.

For the substance cocamide monoethanolamine, in series [1], the HLB value is given as 16.8.

Turning to cocamidopropyl betaine, in series [2] (in vivo), the “penetration of the surfactant into skin (concentration at depth 01 to depth 05)” value is on record as “A similar result was seen”.

Consider sodium trideceth-2 sulfate, for which, in series [2] (deposited from micellar composition (Composition E) versus lamellar composition (Composition F), FCAT, FIGS. 1-3), the “penetration of the surfactant into skin (concentration at depth 01 to depth 05)” value was “penetrates the skin at a greater concentration at all 5 depths measured”.
